The results in this text go back to patent US10723711B2, “1,1,1-trifluoro-3-hydroxypropan-2-yl carbamate derivatives and 1,1,1-trifluoro-4-hydroxybutan-2-yl carbamate derivatives as MAGL inhibitors” (PFIZER INC., priority 2015, dated 2020).

Molecules are shown by their SMILES. Read-outs that look alike come from different tables or passages of the source. Some results are limits rather than exact numbers.

For assay [1], the target named is T1, human recombinant Monoacylglycerol Lipase (Homo sapiens, UniProt Q99685).
T1 sequence (Q99685 1-303): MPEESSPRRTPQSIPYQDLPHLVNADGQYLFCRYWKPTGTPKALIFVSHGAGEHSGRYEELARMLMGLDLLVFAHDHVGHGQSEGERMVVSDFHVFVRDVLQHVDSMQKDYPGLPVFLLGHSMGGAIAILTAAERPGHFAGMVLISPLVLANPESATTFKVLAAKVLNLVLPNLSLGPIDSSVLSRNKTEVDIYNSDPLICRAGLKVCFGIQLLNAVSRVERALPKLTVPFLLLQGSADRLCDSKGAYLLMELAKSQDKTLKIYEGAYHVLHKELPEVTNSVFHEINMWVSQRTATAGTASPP
Nature of the assay: MAGL inhibition enzymatic assay, fluorogenic substrate 7-HCA, IC50 at T=0 min or after 30 minute incubation (T=30 min). The class given is biochemical. To be noted: geometric mean of 2-4 determinations unless otherwise indicated. As for the experimental part: An equal volume of 7-HCA in assay buffer with 10% DMSO was added either immediately (T=0 min) or after a 30 minute incubation (T=30 min) to initiate the reaction. […] After these dilutions, the final concentration of the test compound ranged from 3 μM to 0.03 nM. […] IC50 values were generated based on a four parameter fit model using ABASE software from IDBS.

Assay [2] concerns the target T1, human recombinant Monoacylglycerol Lipase. Put plainly: MAGL inactivation, enzyme progress curves, kinact/KI. The note with it: from enzyme progress curves, T = 0 min protocol; geometric mean of 2-4 determinations unless otherwise indicated. The format is biochemical. How it is done: Assessment of MAGL inhibition utilizes human recombinant Monoacylglycerol Lipase and the fluorogenic substrate 7-hydroxycoumarinyl arachidonate (7-HCA, Biomol ST-502). 400 nL of a test compound at decreasing concentration (ranging from 150 μM down to 1.5 nM) was spotted into a 384-well back plate (PerkinElmer, 6007279) using a Labcyte Echo, followed by addition of 10 μL of MAGL enzyme in assay buffer (50 mM HEPES, pH 7.4, 100 mM NaCl, 5 mM MgCl2, 0.1% Triton X-100 and 25% glycerin). An equal volume of 7-HCA in assay buffer with 10% DMSO was added either immediately (T=0 min) or after a 30 minute incubation (T=30 min) to initiate the reaction. The final concentration of MAGL enzyme was […] and 7-HCA substrate was 5 μM. After these dilutions, the final concentration of the test compound ranged from 3 μM to 0.03 nM. The reaction was allowed to progress for 60 minutes, after which the plate was read at an Ex/Em of 340/465. Percent inhibitions were calculated based on control wells containing no compound (0% inhibition) and a control compound (e.g., a MAGL inhibitor whose activity is known or was previously reported in the literature, such as one with about 100% inhibition). IC50 values were generated based on a four parameter fit model using ABASE software from IDBS. See e.g., Wang, Y. et al., “A Fluorescence-Based Assay for Monoacylglycerol Lipase Compatible with Inhibitor Screening,” Assay and Drug Development Technologies, 2008, Vol. 6 (3) pp 387-393 (reporting an assay for measuring MAGL activity).
To measure MAGL inactivation, the same protocol for the (T=0 min) MAGL inhibition IC50 assay was performed with data collected every minute to acquire enzyme progress curves at decreasing concentrations of compound.

Where [3] appears, read: T = 0 min (substrate added immediately), read-out: MAGL (T = 0 min) IC50.
[4] abbreviates: T = 30 min (30 minute incubation), read-out: MAGL (T = 30 min) IC50.

Turning to `O=C(O[C@H](CO)C(F)(F)F)N1CCC2(CC1)CN(S(=O)(=O)c1ccc(F)cc1)C(O)CO2` (mixture of isomers) [Example 29, (2R)-1,1,1-Trifluoro-3-hydroxypropan-2-yl 4-[(4-fluorophenyl)sulfonyl]-3-hydroxy-1-oxa-4,9-diazaspiro[5.5]undecane-9-carboxylate], the values for the half-maximal inhibitory concentration (IC50) in assay [1] (setting [3]) and in assay [1] (setting [4]) were 109 nM and 24 nM, respectively. Further, the “MAGL kinact/KI” value in assay [2] was 85270 1/s per M.

On to `O=C(O[C@H](CO)C(F)(F)F)N1CCC2(CC1)CC(OCc1ccccc1)CO2` (mixture of isomers) [Example 132], for which the results for the half-inhibitory concentration (IC50) in assay [1] (setting [3]) and in assay [1] (setting [4]) were 130 nM and 12 nM, respectively. In addition, the “MAGL kinact/KI” value in assay [2] was 8426 1/s per M.

On to `O=C(O[C@H](CO)C(F)(F)F)N1CCC2(CC1)CN(CC1CCCOC1)CCO2` (single isomer, unassigned) [Example 4], for which the IC50 in assay [1] (setting [3]) was found to be 166 nM; in assay [1] (setting [4]), 19 nM. In addition, in assay [2], the “MAGL kinact/KI” value is listed as 5489 1/s per M.

For the compound `CC1N(S(=O)(=O)c2ccc(F)cc2)CCOC12CCN(C(=O)O[C@H](CO)C(F)(F)F)CC2` (single isomer, unassigned) [Example 71], the IC50 in assay [1] (setting [3]) turned out to be 99 nM; in assay [1] (setting [4]) it was 17 nM. Moreover, in assay [2], the “MAGL kinact/KI” value was 9358 1/s per M.

Regarding `COc1ccc(-n2ccc([C@H]3[C@@H]4CN(C(=O)O[C@H](CO)C(F)(F)F)C[C@@H]43)n2)nc1` [Example 1, (2R)-1,1,1-trifluoro-3-hydroxypropan-2-yl (1α,5α,6α)-6-[1-(5-methoxypyridin-2-yl)-1H-pyrazol-3-yl]-3-azabicyclo[3.1.0]hexane-3-carboxylate], the 50% inhibitory concentration (IC50) in assay [1] (setting [3]) was determined as 85 nM; in assay [1] (setting [4]), 14 nM. In addition, the “MAGL kinact/KI” value in assay [2] is on record as 7806 1/s per M.

On to `CN([C@H]1COC2(CCN(C(=O)O[C@H](CO)C(F)(F)F)CC2)C1)S(=O)(=O)c1ccccc1` [Example 15, (2R)-1,1,1-trifluoro-3-hydroxypropan-2-yl (3R)-3-[methyl(phenylsulfonyl)amino]-1-oxa-8-azaspiro[4.5]decane-8-carboxylate], for which the results for the IC50 in assay [1] (setting [3]) and in assay [1] (setting [4]) were 17 nM and 2 nM, respectively. The “MAGL kinact/KI” value in assay [2] was 44421 1/s per M.

As to `O=C(O[C@H](CO)C(F)(F)F)N1C[C@@H]2[C@H](C1)[C@H]2c1ccn(Cc2ccccn2)n1` [Example 37], the concentration for half-maximal inhibition (IC50) in assay [1] (setting [3]) amounted to 357 nM; in assay [1] (setting [4]), 27 nM. Moreover, the “MAGL kinact/KI” value in assay [2] is given as 1616 1/s per M.

Turning to `O=C(OC(CO)C(F)(F)F)N1CCC(c2ccn(C3CCOCC3)n2)CC1` (stereo not shown) [Example 38, 1,1,1-trifluoro-3-hydroxypropan-2-yl 4-[1-(tetrahydro-2H-pyran-4-yl)-1H-pyrazol-3-yl]piperidine-1-carboxylate], the figures for the half-inhibitory concentration (IC50) in assay [1] (setting [3]) and in assay [1] (setting [4]) were 1470 nM and 77 nM, respectively.

`O=C(O[C@H](CO)C(F)(F)F)N1C[C@@H]2CN(S(=O)(=O)c3ccc(F)cc3)C[C@@H]2C1` [Example 40]: the IC50 in assay [1] (setting [3]) was determined as 494 nM; in assay [1] (setting [4]), 50 nM.

For `O=C(O[C@H](CO)C(F)(F)F)N1CCC2(CCCN(Cc3ccc(F)cc3)C2)CC1` [Example 41], the half-inhibitory concentration (IC50) in assay [1] (setting [3]) was determined as 1580 nM; in assay [1] (setting [4]) it was 166 nM.

As to `O=C(O[C@H](CO)C(F)(F)F)N1CCC2(CC1)CN(Cc1ccc(F)cc1)CCO2` [Example 42], the half-maximal inhibitory concentration (IC50) in assay [1] (setting [3]) was determined as 304 nM; in assay [1] (setting [4]), 32 nM. In addition, the “MAGL kinact/KI” value in assay [2] is 2591 1/s per M.

Regarding `O=C(O[C@H](CO)C(F)(F)F)N1CCC(O)(CN(Cc2ccc(F)cc2)C2CCOCC2)CC1` [Example 46], the values for the concentration for half-maximal inhibition (IC50) in assay [1] (setting [3]) and in assay [1] (setting [4]) were 560 nM and 46 nM, respectively.

Regarding `O=C(O[C@H](CO)C(F)(F)F)N1C[C@@H]2CN(c3cc(C4CC4)ccn3)C[C@@H]2C1` [Example 48], the half-inhibitory concentration (IC50) in assay [1] (setting [3]) is > 3000 nM; in assay [1] (setting [4]), 926 nM.

Turning to `O=C(O[C@H](CO)C(F)(F)F)N1CCC2(CC1)CN(S(=O)(=O)C1CCOCC1)CCO2` [Example 49], the half-maximal inhibitory concentration (IC50) was > 3000 nM in assay [1] (setting [3]) and 654 nM in assay [1] (setting [4]).

As for `O=C(O[C@H](CO)C(F)(F)F)N1CCC(CN(Cc2ccc(F)cc2)C2CCOCC2)CC1` [Example 50], the values for the IC50 in assay [1] (setting [3]) and in assay [1] (setting [4]) were 857 nM and 71 nM, respectively.

For `O=C(O[C@H](CO)C(F)(F)F)N1CCC2(CC1)CN(S(=O)(=O)CCCN1CCCC1)CCO2` [Example 54], the values for the IC50 in assay [1] (setting [3]) and in assay [1] (setting [4]) were > 3000 nM and > 1680 nM, respectively.

`O=C(O[C@H](CO)C(F)(F)F)N1CCC2(CC1)CN(S(=O)(=O)CCc1ccccn1)CCO2` [Example 55]: the values for the 50% inhibitory concentration (IC50) in assay [1] (setting [3]) and in assay [1] (setting [4]) were 447 nM and 43 nM, respectively.

For the compound `O=C(O[C@H](CO)C(F)(F)F)N1CCC2(CC1)CN(S(=O)(=O)CCCn1ccnc1)CCO2` [Example 56], the values for the half-inhibitory concentration (IC50) in assay [1] (setting [3]) and in assay [1] (setting [4]) were 2340 nM and 167 nM, respectively.

Take `Cc1ccc(OC2CCN(C(=O)O[C@H](CO)C(F)(F)F)CC2)nc1` [Example 57]: the IC50 in assay [1] (setting [3]) was determined as 126 nM; in assay [1] (setting [4]) it was 10 nM. Further, the “MAGL kinact/KI” value in assay [2] is given as 5998 1/s per M.

As for `Cc1cnc(OC2CCN(C(=O)O[C@H](CO)C(F)(F)F)CC2)nc1-c1ccnn1C` [Example 58], the half-inhibitory concentration (IC50) in assay [1] (setting [3]) came out at 249 nM; in assay [1] (setting [4]), 33 nM.

On to `Cn1nccc1-c1ccnc(OC2CCN(C(=O)O[C@H](CO)C(F)(F)F)CC2)c1` [Example 64], for which the half-maximal inhibitory concentration (IC50) was 550 nM in assay [1] (setting [3]) and 42 nM in assay [1] (setting [4]).

In the case of `Cn1nccc1-c1cccc(OC2CCN(C(=O)O[C@H](CO)C(F)(F)F)CC2)n1` [Example 65], the IC50 in assay [1] (setting [3]) came out at 359 nM; in assay [1] (setting [4]), 30 nM.

Consider `O=C(O[C@H](CO)C(F)(F)F)N1CCC2(CC1)CN(Cc1ccc(F)cc1)C(=O)O2` [Example 72], for which the IC50 was determined as 220 nM in assay [1] (setting [3]) and 28 nM in assay [1] (setting [4]).

With `O=C(O[C@H](CO)C(F)(F)F)N1CCC2(CC1)CN(S(=O)(=O)NCc1ccccn1)CCO2` [Example 74], the 50% inhibitory concentration (IC50) in assay [1] (setting [3]) amounted to 392 nM; in assay [1] (setting [4]) it was 52 nM.

As for `O=C(O[C@H](CO)C(F)(F)F)N1CCC(Oc2ccc(CO)cn2)CC1` [Example 75], the half-inhibitory concentration (IC50) amounted to 688 nM in assay [1] (setting [3]) and 79 nM in assay [1] (setting [4]).

With `Cc1cnc(N2CCOC3(CCN(C(=O)O[C@H](CO)C(F)(F)F)CC3)C2)nc1` [Example 76], the results for the half-maximal inhibitory concentration (IC50) in assay [1] (setting [3]) and in assay [1] (setting [4]) were 658 nM and 83 nM, respectively.

As for `C#Cc1ccc(-n2ccc([C@H]3[C@@H]4CN(C(=O)O[C@@H](CO)C(F)(F)F)C[C@@H]43)n2)cc1` [Example 82], the IC50 in assay [1] (setting [3]) is > 2750 nM; in assay [1] (setting [4]), 598 nM.

In the case of `CCOP(=O)(OCC)OC[C@@H](OC(=O)N1CCC2(CC1)CN(S(=O)(=O)c1ccc(F)cc1)CCO2)C(F)(F)F` [Example 88], the concentration for half-maximal inhibition (IC50) in assay [1] (setting [3]) and in assay [1] (setting [4]) was > 3000 nM in each case.

On to `C[N+](C)(C)CCOP(=O)([O-])OC[C@@H](OC(=O)N1CCC2(CC1)CN(S(=O)(=O)c1ccc(F)cc1)CCO2)C(F)(F)F` [Example 90], for which the IC50 in assay [1] (setting [3]) and in assay [1] (setting [4]) was > 3000 nM in each case.

In the case of `O=C(O[C@H](CO)C(F)(F)F)N1CCC2(CC1)CCN(C(=O)c1ccccn1)C2` [Example 128], the values for the 50% inhibitory concentration (IC50) in assay [1] (setting [3]) and in assay [1] (setting [4]) were 423 nM and 50 nM, respectively.

For the compound `CN(C(=O)c1ccccn1)[C@H]1COC2(CCN(C(=O)O[C@H](CO)C(F)(F)F)CC2)C1` [Example 146], the concentration for half-maximal inhibition (IC50) in assay [1] (setting [3]) was 539 nM; in assay [1] (setting [4]) it was 48 nM.

Take `CN(C1COC2(CCN(C(=O)OC(COP(=O)(O)O)C(F)(F)F)CC2)C1)S(=O)(=O)c1ccccc1` (stereo not shown) [Example 148]: the results for the half-maximal inhibitory concentration (IC50) in assay [1] (setting [3]) and in assay [1] (setting [4]) were > 3000 nM and > 1230 nM, respectively.

The IC50 is the midpoint of a concentration-inhibition curve.
